Assay results published in patent US20160000737A1, “TREATMENT OF PETS WITH SIRTUIN ACTIVATORS” (NUSIRT SCIENCES, INC., priority 2013, published 2016).
Marks after values point to notes of the source that are not given here.

How the values were obtained:
diet-induced obese mice [1] = test: Diet-induced obese mice on resveratrol/HMB/leucine diets: body weight, weight gain, adiposity; type: in vivo, c57/BL6 mice
Excerpt: Six week old male c57/BL6 mice were fed a high-fat diet with fat increased to 45% of energy (Research Diets D12451) for 6 weeks to induce obesity. At the end of this obesity induction period, animals were randomly divided into the following seven different diet treatment groups with 10 animals per group (overall 70 animals) and maintained on these diets for 6 weeks:
Group 1 (labeled “control group”): high-fat diet only (same as in obesity induction period (Research Diets D12451)).
This diet was modified for groups 2 to 7 in the following way:
Group 2 (labeled “low dose resveratrol”): high-fat diet mixed with 12.5 mg resveratrol/kg diet.
Group 3 (labeled “high dose resveratrol”): high-fat diet mixed with 225 mg resveratrol/kg diet.
Group 4 (labeled “low dose HMB”): high-fat diet mixed with 2 g of the calcium salt of hydroxymethylbutyrate, a naturally occurring metabolite of leucine (CaHMB).
Group 5 (labeled “low dose resveratrol plus low dose CaHMB”): high fat-diet mixed with 12.5 mg of resveratrol/kg diet and 2 g CaHMB/kg diet.
Group 6 (labeled “low dose resveratrol plus high dose HMB”): high fat-diet mixed with 12.5 mg of resveratrol/kg diet and 10 g CaHMB/kg diet.
The animals were housed in polypropylene cages at a room temperature of 22±2° C. and regime of 12 h light/dark cycle. The animals had free access to water and their experimental food throughout the experiment. […]

diet-induced obese mice [2] = test: microPET/CT glucose and palmitate uptake; type: in vivo, c57/BL6 mice; settings: 6 weeks
Procedure: at the end of the treatment period (6 weeks of treatment) subgroups of each treatment diet group (5 animals/group, 35 animals total) were used to measure whole body glucose and palmitate uptake via PET/CT Imaging. To visualize these compounds using microPET imaging, the glucose or palmitate was labeled with fluorine-18 (108 mins half life) or carbon-11 (20 mins half life), respectively. Each mouse was fasted for 4 hours, then anesthetized using 1-3% isoflurane delivered by nose cone or in a mouse-sized induction chamber purpose-built for small animal imaging protocols. While under anesthesia the mice were injected iv with <2 mCi of each tracer, then be left for a period of time (minutes to up˜1 hour) to allow the uptake of the tracer. During the scan, mice were kept warm using a thermostatically controlled heated bed and were treated with ophthalmic ointment prior to scanning Following the live scan the mice were returned to their cage and revived. Mice were monitored constantly during this time. Following live data acquisition the mice were sacrificed by isoflurane overdose and organs harvested for further experiments.

diet-induced obese mice [3] = test: Oxygen consumption/substrate utilization in metabolic chambers (CLAMS); type: in vivo, c57/BL6 mice
Procedure: at the end of the obesity induction period (day 0 of treatment group) and at 2 weeks and 6 weeks of treatment, oxygen consumption and substrate utilization was measured via metabolic chambers using the Comprehensive Lab Animal Monitoring Systems (CLAMS, Columbus Instruments, Columbus, Ohio) in subgroups of each treatment group. Each animal was placed in individual cages without bedding that allow automated, non-invasive data collection. Each cage is an indirect open circuit calorimeter that provides measurement of oxygen consumption, carbon dioxide production, and concurrent measurement of food intake. All mice were acclimatized to the chambers for 24 hours prior to the experiment and maintained under the regular 12:12 light:dark cycle with free access to water and food. All experiments were started in the morning and data were collected for 24 hours. Each chamber was passed with 0.61 of air/min and was sampled for 2 min at 32-minute intervals. Exhaust O2 and CO2 content from each chamber was compared with ambient O2 and CO2 content. Food consumption was measured by electronic scales.

diet-induced obese mice [4] = test: Indices of insulin sensitivity (plasma glucose, insulin, HOMAIR); type: in vivo, c57/BL6 mice; settings: resveratrol at either dose, HMB, each alone
Procedure: Insulin sensitivity can be measured using a variety of techniques, including HOMAIR. HOMAIR, which is the homeostasis model assessment of insulin resistance can be used as a screening index of changes in insulin sensitivity. HOMAIR can be calculated via standard formula from fasting plasma insulin and glucose as follows: HOMAIR=[Insulin (uU/mL)×glucose (mM)]/22.5.
(§1) The animals were housed in polypropylene cages at a room temperature of 22±2° C. and regime of 12 h light/dark cycle. The animals had free access to water and their experimental food throughout the experiment. At the of the treatment period (6 weeks) all animals were humanely euthanized, and blood and tissues collected for further experiments.

SIRT1 = target: T1, SIRT1 (Mus musculus, UniProt Q923E4); test: Adipose tissue SIRT1 activity (SIRT1 Fluorimetric Drug Discovery Kit); type: in vivo, c57/BL6 mice
T1 construct: effects of dietary treatments on adipose tissue Sirt1 activity; from tissue; host or cells: mouse adipose tissue
T1 sequence (Q923E4 1-737): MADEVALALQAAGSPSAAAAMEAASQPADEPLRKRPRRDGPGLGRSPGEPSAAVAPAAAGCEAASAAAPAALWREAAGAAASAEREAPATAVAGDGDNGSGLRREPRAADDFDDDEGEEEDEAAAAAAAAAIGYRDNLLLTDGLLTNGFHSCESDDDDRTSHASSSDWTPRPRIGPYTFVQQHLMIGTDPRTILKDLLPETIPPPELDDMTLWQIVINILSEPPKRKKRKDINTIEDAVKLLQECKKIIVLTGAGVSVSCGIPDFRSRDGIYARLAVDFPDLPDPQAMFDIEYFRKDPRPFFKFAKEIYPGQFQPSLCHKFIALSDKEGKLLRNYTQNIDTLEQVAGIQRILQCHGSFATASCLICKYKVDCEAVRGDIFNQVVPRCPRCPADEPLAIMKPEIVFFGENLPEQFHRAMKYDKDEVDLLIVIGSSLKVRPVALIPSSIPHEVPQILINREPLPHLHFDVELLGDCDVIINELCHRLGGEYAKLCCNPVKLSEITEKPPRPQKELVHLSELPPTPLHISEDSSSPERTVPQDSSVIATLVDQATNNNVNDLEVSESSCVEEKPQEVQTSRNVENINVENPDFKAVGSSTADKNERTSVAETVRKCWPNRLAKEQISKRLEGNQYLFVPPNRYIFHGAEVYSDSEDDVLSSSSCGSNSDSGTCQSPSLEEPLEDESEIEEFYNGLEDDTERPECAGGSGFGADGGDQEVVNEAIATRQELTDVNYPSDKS
Procedure: SIRT1 activity was measured by using the SIRT1 Fluorimetric Drug Discovery Kit (BML-AK555, ENZO Life Sciences International, Inc. PA, USA). In this assay, SIRT1 activity is assessed by the degree of deacetylation of a standardized substrate containing an acetylated lysine side chain. The substrate utilized is a peptide containing amino acids 379-382 of human p53 (Arg-His-Lys-Lys[Ac]), an established target of SIRT1 activity; SIRT1 activity is directly proportional to the degree of deacetylation of Lys-382. Samples were incubated with peptide substrate (25 μM), and NAD^+ (500 μM) in a phosphate-buffered saline solution at 37° C. on a horizontal shaker for 45 minutes. The reaction was stopped with the addition of 2 mM nicotinamide and a developing solution that binds to the deacetylated lysine to form a fluorophore. Following 10 minutes incubation at 37° C., fluorescence was read in a plate-reading fluorometer at an excitation wavelength of 360 nm and an emission wavelength of 450 nm. Resveratrol ([…]) served as a SIRT1 activator and suramin sodium (25 mM) as a SIRT1 inhibitor; wells including each were utilized as positive and negative controls in each set of reactions. A standard curve was constructed using deacetylated substrate (0-10 μM). Data was normalized to cellular protein concentration measured via BCA-assay.

[5] = system: inflammatory biomarkers (C-reactive protein, IL-6, MCP-1, adiponectin); test: Inflammatory biomarkers in diet-induced obese mice; type: in vivo, c57/BL6 mice; settings: for Adiponectin / C-reactive protein / IL-6 / MCP-1: 6 weeks
Procedure: as §1

[6] = Circulating level after dosing; type: in vivo
[7] = high dose: 225 mg resveratrol/kg diet
[8] = low dose: 12.5 mg resveratrol/kg diet

Oc1ccc(/C=C/c2cc(O)cc(O)c2)cc1 [Resveratrol, 3,5,4′-Trihydroxy-trans-stilbene]
effect on body weight, weight gain, or visceral adipose tissue mass (diet-induced obese mice [1]; high dose resveratrol): no significant effect | effect on body weight, weight gain, visceral adipose tissue mass, fat oxidation, respiratory exchange ratio (RER), or heat production (diet-induced obese mice [1]; low doses, each alone): no significant independent effect | Muscle Glucose Uptake (18F-deoxyglucose SUV) (diet-induced obese mice [2]; [7]): 3.87 ± 0.32^a SUV | Muscle Glucose Uptake (18F-deoxyglucose SUV) (diet-induced obese mice [2]; [8]): 3.63 ± 1.29^a SUV | RER (diet-induced obese mice [3]; high dose of resveratrol): decreased | heat production and skeletal muscle fat oxidation (diet-induced obese mice [3]; high dose of resveratrol): significantly increased | Respiratory Exchange Ratio (24 hr RER) (diet-induced obese mice [3]; [7]): 0.825 ± 0.007^b | Respiratory Exchange Ratio (24 hr RER) (diet-induced obese mice [3]; [8]): 0.847 ± 0.008^a | effect on plasma insulin or on muscle glucose uptake (diet-induced obese mice [4]): Neither resveratrol at either dose nor HMB exerted any significant effect | adipose tissue Sirt1 activity (SIRT1; high dose resveratrol): non-significant trend towards an increase | adipose tissue Sirt1 activity (SIRT1; resveratrol or HMB alone): Neither resveratrol nor HMB exerted significant independent effects | effect on MCP-1 or c-reactive protein ([5]; HMB or low dose of resveratrol alone): neither HMB nor a low dose of resveratrol exerted any effect | circulating IL-6 ([5]; high dose of resveratrol): significantly reduced | Adiponectin [5, 7]: 14.8 ± 1.8^b ng/mL | C-reactive protein [5, 7]: 123.9 ± 35.3^a ng/mL | IL-6 [5, 7]: 14.1 ± 1.3^b pg/mL | MCP-1 [5, 7]: 27.3 ± 6.8^b pg/mL | circulating IL-6 ([5]; low dose of resveratrol alone): no independent effect | Adiponectin [5, 8]: 12.4 ± 1.1 ng/mL | C-reactive protein [5, 8]: 134.8 ± 8.5^a ng/mL | IL-6 [5, 8]: 23.2 ± 2.9^a pg/mL | MCP-1 [5, 8]: 104.4 ± 16.5^a pg/mL | circulating level of resveratrol ([6]; oral dosing of about 10 mg, subject about 30 lb): about 200 nM | circulating level of resveratrol ([6]; oral dosing of about 50 mg, subject about 150 lb): about 200 nM | circulating level of resveratrol ([6]; oral dosing of about 220 mg, subject about 30 lb): about 0.5 mM | circulating level of resveratrol ([6]; oral dosing of about 1100 mg, subject about 150 lb): about 0.5 mM

CC(C)C[C@H](N)C(=O)O [leucine, L-leucine]
circulating level of leucine ([6]; dosing of about 60 mg leucine, subject weighing about 30 lb): about 0.25 mM | circulating level of leucine ([6]; dosing of about 225 mg leucine, subject weighing about 30 lb): about 0.5 mM | circulating level of leucine ([6]; dosing of about 300 mg leucine, subject weighing about 150 lb): about 0.25 mM | circulating level of leucine ([6]; dosing of about 1,125 mg leucine, subject weighing about 150 lb): about 0.5 mM
